In brackets after ≈: the same amount, converted by molar mass. Read-outs that look alike come from different tables or passages of the source.
Key:
Type in all cases: cell-based
[1] = system: Streptococcus pyogenes 712; assay: MIC by broth microdilution, SPY 712
In short: (§1)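 Broth microdilution in Mueller-Hinton broth per NCCLS/CLSI procedure, with automated serial dilution and liquid transfer. Strains are clinical isolates sensitive or resistant to natural glycopeptides.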

Enterococcus faecium 800 = assay: MIC by broth microdilution, EFcm 800
In short: as §1

[2] = system: Enterococcus faecium 752 (VRE, Van A); assay: MIC by broth microdilution, EFcm 752; details: class symbols
In short: as §1

[3] = system: Staphylococcus epidermidis 835; assay: MIC by broth microdilution, SE 835
In short: as §1

[4] = system: Staphylococcus epidermidis 831 (MRSE); assay: MIC by broth microdilution, SE 831; details: read-out: MIC SE 831
In short: as §1

[5] = system: Staphylococcus aureus 757 (MRSA); assay: MIC by broth microdilution, SA 757; details: read-out: MIC SA 757
In short: as §1

[6] = system: Staphylococcus aureus 2012 (VISA); assay: MIC by broth microdilution, SA 2012; details: class symbols
In short: as §1

[7] = system: Streptococcus pneumoniae 1195 (ATCC 49619); assay: MIC by broth microdilution, SPNE 1195
In short: as §1

[8] = system: Enterococcus faecalis 848 (VRE, Van A); assay: MIC by broth microdilution, EFc 848; details: class symbols
In short: as §1

[9] = system: Enterococcus faecalis 101 (ATCC 29212); assay: MIC by broth microdilution, EFc 101; details: class symbols
In short: as §1

[10] = system: Staphylococcus aureus 100 (ATCC 29213); assay: MIC by broth microdilution, SA 100
In short: as §1

[11] = Streptococcus pyogenes 712, class symbols, read-out: MIC S PYO 712
[12] = Enterococcus faecium 800, class symbols, read-out: MIC E FCM 800
[13] = Enterococcus faecium 752 (VRE, Van A), read-out: MIC E FCM 752
[14] = Staphylococcus epidermidis 835, class symbols, read-out: MIC SE 835
[15] = Staphylococcus epidermidis 831 (MRSE), class symbols
[16] = Staphylococcus aureus 757 (MRSA), class symbols
[17] = Staphylococcus aureus 2012 (VISA), read-out: MIC SA 2012
[18] = ATCC49619, Streptococcus pneumoniae 1195 (ATCC 49619), class symbols, read-out: MIC S PNE 1195
[19] = Enterococcus faecalis 848 (VRE, Van A), read-out: MIC E FC 848
[20] = ATCC29212, Enterococcus faecalis 101 (ATCC 29212), read-out: MIC E FC 101
[21] = ATCC29213, Staphylococcus aureus 100 (ATCC 29213), class symbols, read-out: MIC SA 100
[22] = Streptococcus pyogenes, 712, read-out: MIC S PYO 712
[23] = Enterococcus faecium, 800, read-out: MIC E FCM 800
[24] = Enterococcus faecium, VRE, read-out: MIC E FCM 752, Enterococcus faecium 752 (VRE, Van A)
[25] = Staphylococcus epidermidis, 835, read-out: MIC SE 835
[26] = Staphylococcus epidermidis, MRSE
[27] = Staphylococcus aureus, VISA, read-out: MIC SA 2012, Staphylococcus aureus 2012 (VISA)
[28] = Streptococcus pneumoniae, ATCC49619, read-out: MIC S PNE 1195
[29] = Enterococcus faecalis, VRE, read-out: MIC E FC 848, Enterococcus faecalis 848 (VRE, Van A)
[30] = Enterococcus faecalis, ATCC29212, read-out: MIC E FC 101, Enterococcus faecalis 101 (ATCC 29212)
[31] = Staphylococcus aureus, ATCC29213, read-out: MIC SA 100

## CCCCCOc1ccc(S(=O)(=O)NCCCCCCNCc2c(O)cc3c(c2O)-c2cc(ccc2O)[C@H]2NC(=O)[C@@H]4NC(=O)[C@H](CC(N)=O)NC(=O)[C@H](NC(=O)[C@@H](CC(C)C)NC)[C@H](O)c5ccc(c(Cl)c5)Oc5cc4cc(c5O[C@@H]4O[C@H](CO)[C@@H](O)[C@H](O)[C@H]4O[C@H]4C[C@](C)(NC(=O)[C@@H](C)N)[C@H](O)[C@H](C)O4)Oc4ccc(cc4Cl)[C@@H](O)[C@H](NC2=O)C(=O)N[C@@H]3C(=O)O)cc1 (atropisomer, axis not shown) [Compound 357]
[1]; [11]
  MIC: 0.01 to 0.5 mg/L (≈ 0.00533 to 0.267 µM)
Enterococcus faecium 800; [12]
  MIC: 0.01 to 0.5 mg/L (≈ 0.00533 to 0.267 µM)
[2]; [13]
  MIC: 4 to 8 mg/L (≈ 2.13 to 4.27 µM)
[3]; [14]
  MIC: 0.01 to 0.5 mg/L (≈ 0.00533 to 0.267 µM)
[4]; [15]
  MIC: 0.01 to 0.5 mg/L (≈ 0.00533 to 0.267 µM)
[5]; [16]
  MIC: 0.01 to 0.5 mg/L (≈ 0.00533 to 0.267 µM)
[6]; [17]
  MIC: 0.01 to 0.5 mg/L (≈ 0.00533 to 0.267 µM)
[7]; [18]
  MIC: 0.01 to 0.5 mg/L (≈ 0.00533 to 0.267 µM)
[8]; [19]
  MIC: > 16 mg/L
[9]; [20]
  MIC: 0.01 to 0.5 mg/L (≈ 0.00533 to 0.267 µM)
[10]; [21]
  MIC: 0.01 to 0.5 mg/L (≈ 0.00533 to 0.267 µM)

## CCCCCCc1ccc(S(=O)(=O)NCCCCCCNCc2c(O)cc3c(c2O)-c2cc(ccc2O)[C@H]2NC(=O)[C@@H]4NC(=O)[C@H](CC(N)=O)NC(=O)[C@H](NC(=O)[C@@H](CC(C)C)NC)[C@H](O)c5ccc(c(Cl)c5)Oc5cc4cc(c5O[C@@H]4O[C@H](CO)[C@@H](O)[C@H](O)[C@H]4O[C@H]4C[C@](C)(NC(=O)NC5CC5)[C@H](O)[C@H](C)O4)Oc4ccc(cc4Cl)[C@@H](O)[C@H](NC2=O)C(=O)N[C@@H]3C(=O)O)cc1 (atropisomer, axis not shown) [Compound 365]
[1]; [11]
  MIC: 0.01 to 0.5 mg/L (≈ 0.00531 to 0.265 µM)
Enterococcus faecium 800; [12]
  MIC: 0.01 to 0.5 mg/L (≈ 0.00531 to 0.265 µM)
[2]; [13]
  MIC: 1 to 2 mg/L (≈ 0.531 to 1.06 µM)
[3]; [14]
  MIC: 0.01 to 0.5 mg/L (≈ 0.00531 to 0.265 µM)
[4]; [15]
  MIC: 0.01 to 0.5 mg/L (≈ 0.00531 to 0.265 µM)
[5]; [16]
  MIC: 0.01 to 0.5 mg/L (≈ 0.00531 to 0.265 µM)
[6]; [17]
  MIC: 0.01 to 0.5 mg/L (≈ 0.00531 to 0.265 µM)
[7]; [18]
  MIC: 0.01 to 0.5 mg/L (≈ 0.00531 to 0.265 µM)
[8]; [19]
  MIC: > 16 mg/L
[9]; [20]
  MIC: 0.01 to 0.5 mg/L (≈ 0.00531 to 0.265 µM)
[10]; [21]
  MIC: 0.01 to 0.5 mg/L (≈ 0.00531 to 0.265 µM)

## CCCCCCCCc1ccc(S(=O)(=O)NCCCCCCNCc2c(O)cc3c(c2O)-c2cc(ccc2O)[C@H]2NC(=O)[C@@H]4NC(=O)[C@H](CC(N)=O)NC(=O)[C@H](NC(=O)[C@@H](CC(C)C)NC)[C@H](O)c5ccc(c(Cl)c5)Oc5cc4cc(c5O[C@@H]4O[C@H](CO)[C@@H](O)[C@H](O)[C@H]4O[C@H]4C[C@](C)(NC(=O)NC5CC5)[C@H](O)[C@H](C)O4)Oc4ccc(cc4Cl)[C@@H](O)[C@H](NC2=O)C(=O)N[C@@H]3C(=O)O)cc1 (atropisomer, axis not shown) [Compound 366]
[1]; [11]
  MIC: 0.01 to 0.5 mg/L (≈ 0.00523 to 0.261 µM)
Enterococcus faecium 800; [12]
  MIC: 0.01 to 0.5 mg/L (≈ 0.00523 to 0.261 µM)
[2]; [13]
  MIC: 2 to 4 mg/L (≈ 1.05 to 2.09 µM)
[3]; [14]
  MIC: 0.01 to 0.5 mg/L (≈ 0.00523 to 0.261 µM)
[4]; [15]
  MIC: 0.01 to 0.5 mg/L (≈ 0.00523 to 0.261 µM)
[5]; [16]
  MIC: 0.01 to 0.5 mg/L (≈ 0.00523 to 0.261 µM)
[6]; [17]
  MIC: 0.01 to 0.5 mg/L (≈ 0.00523 to 0.261 µM)
[7]; [18]
  MIC: 0.01 to 0.5 mg/L (≈ 0.00523 to 0.261 µM)
[8]; [19]
  MIC: 8 to 16 mg/L (≈ 4.18 to 8.36 µM)
[9]; [20]
  MIC: 0.01 to 0.5 mg/L (≈ 0.00523 to 0.261 µM)
[10]; [21]
  MIC: 0.01 to 0.5 mg/L (≈ 0.00523 to 0.261 µM)

## CCCCCOc1ccc(S(=O)(=O)NCCCCCCNC(=O)Oc2cc(O)c3c(c2)[C@@H](C(=O)O)NC(=O)[C@H]2NC(=O)[C@H](NC(=O)[C@@H]4NC(=O)[C@H](CC(N)=O)NC(=O)[C@H](NC(=O)[C@@H](CC(C)C)NC)[C@H](O)c5ccc(c(Cl)c5)Oc5cc4cc(c5O[C@@H]4O[C@H](CO)[C@@H](O)[C@H](O)[C@H]4O[C@H]4C[C@](C)(N)[C@H](O)[C@H](C)O4)Oc4ccc(cc4Cl)[C@H]2O)c2ccc(O)c-3c2)cc1 (atropisomer, axis not shown) [Compound 322]
[1]; [22]
  MIC: 0.01 to 0.5 mg/L (≈ 0.0055 to 0.275 µM)
Enterococcus faecium 800; [23]
  MIC: 0.01 to 0.5 mg/L (≈ 0.0055 to 0.275 µM)
[2]; [24]
  MIC: 2 to 4 mg/L (≈ 1.1 to 2.2 µM)
[3]; [25]
  MIC: 0.01 to 0.5 mg/L (≈ 0.0055 to 0.275 µM)
[4]; [26]
  MIC: 0.01 to 0.5 mg/L (≈ 0.0055 to 0.275 µM)
[5]; Staphylococcus aureus, MRSA
  MIC: 0.01 to 0.5 mg/L (≈ 0.0055 to 0.275 µM)
[6]; [27]
  MIC: 1 to 2 mg/L (≈ 0.55 to 1.1 µM)
[7]; [28]
  MIC: 0.01 to 0.5 mg/L (≈ 0.0055 to 0.275 µM)
[8]; [29]
  MIC: 8 to 16 mg/L (≈ 4.4 to 8.8 µM)
[9]; [30]
  MIC: 0.01 to 0.5 mg/L (≈ 0.0055 to 0.275 µM)
[10]; [31]
  MIC: 0.01 to 0.5 mg/L (≈ 0.0055 to 0.275 µM)

## CCCCCOc1ccc(S(=O)(=O)NCCCCNC(=O)Oc2cc(O)c3c(c2)[C@@H](C(=O)NC2C4CC5CC(C4)CC2C5)NC(=O)[C@H]2NC(=O)[C@H](NC(=O)[C@@H]4NC(=O)[C@H](CC(N)=O)NC(=O)[C@H](NC(=O)[C@@H](CC(C)C)NC)[C@H](O)c5ccc(c(Cl)c5)Oc5cc4cc(c5O[C@@H]4O[C@H](CO)[C@@H](O)[C@H](O)[C@H]4O[C@H]4C[C@](C)(N)[C@H](O)[C@H](C)O4)Oc4ccc(cc4Cl)[C@H]2O)c2ccc(O)c-3c2)cc1 (stereo partly shown) [Compound 334]
[1]; [22]
  MIC: 0.01 to 0.5 mg/L (≈ 0.0052 to 0.26 µM)
Enterococcus faecium 800; [23]
  MIC: 0.01 to 0.5 mg/L (≈ 0.0052 to 0.26 µM)
[2]; [24]
  MIC: 0.5 to 1 mg/L (≈ 0.26 to 0.52 µM)
[3]; [25]
  MIC: 0.01 to 0.5 mg/L (≈ 0.0052 to 0.26 µM)
[4]; [26]
  MIC: 0.01 to 0.5 mg/L (≈ 0.0052 to 0.26 µM)
[5]; Staphylococcus aureus, MRSA
  MIC: 0.01 to 0.5 mg/L (≈ 0.0052 to 0.26 µM)
[6]; [27]
  MIC: 1 to 2 mg/L (≈ 0.52 to 1.04 µM)
[7]; [28]
  MIC: 0.01 to 0.5 mg/L (≈ 0.0052 to 0.26 µM)
[8]; [29]
  MIC: 8 to 16 mg/L (≈ 4.16 to 8.32 µM)
[9]; [30]
  MIC: 0.01 to 0.5 mg/L (≈ 0.0052 to 0.26 µM)
[10]; [31]
  MIC: 0.01 to 0.5 mg/L (≈ 0.0052 to 0.26 µM)
